Consider 29 compounds from ChEMBL document CHEMBL1131890, “Syntheses and evaluation of amidinobenzofuran derivatives as tryptase inhibitors” (Bioorg Med Chem Lett, 1999).

Assay [1] is described as follows: Compound was tested for inhibitory activity against tryptase. Also noted: species or system Homo sapiens.
The next assay has as its target Prothrombin (Homo sapiens, UniProt P00734). Description: Inhibition of thrombin.
The target in assay [2] is T1, Tryptase (Homo sapiens, UniProt Q9BZJ3+Q15661+Q9NRR2). Description: Inhibition of tryptase activity. The class given is protein assay.
For assay [3], the target named is T1, Tryptase. Nature of the assay: Compound was tested for inhibitory activity against tryptase; Not determined (value more than […]). The class given is protein assay.
For another assay, the system named is Rattus norvegicus. Nature of the assay: Effect of compound on PCA reaction in rats at a i.v. dose of 1 mg/kg 1 hr prior to antigen challenge. The assay is classed as functional. As to conditions: route intravenous.

The structures appear in SMILES notation.

Take `N=C(N)c1ccc2oc(C(=O)N3CCN(C(=O)CCC(=O)N4CCN(C(=O)c5cc6cc(C(=N)N)ccc6o5)CC4)CC3)cc2c1`: the Ki (in general, a measure of affinity in units of concentration, obtained from inhibition or displacement) was 0.015 µM in assay [1] and 51 µM on Prothrombin.
The like results for `N=C(N)c1ccc2oc(C(=O)N3CCN(C(=O)COc4ccc(OCC(=O)Nc5ccc(-c6c[nH]cn6)cc5)cc4)CC3)cc2c1` were, in that order, 0.0068 µM and 5.3 µM.
On Tryptase [2], `N=C(N)NCCCCC(=O)N1CCN(C(=O)COc2ccc(OCC(=O)N3CCN(C(=O)CCCCNC(=N)N)CC3)cc2)CC1` gave a Ki of 80000 nM.
For the compound `N=C(N)c1ccc2oc(C(=O)N3CCN(C(=O)COc4ccc(OCC(=O)N5CCNCC5)cc4)CC3)cc2c1`, the Ki on Tryptase [2] was determined as 67 nM. Against the preceding compound, the Ki is about 1200-fold lower.
At Tryptase [2], `N=C(N)c1ccc2oc(C(=O)N3CCN(C(=O)COc4ccccc4)CC3)cc2c1` had a Ki of 3000 nM. This Ki is about 45-fold higher than that of the compound before.
For the compound `N=C(N)c1ccc2oc(C(=O)N3CCN(C(=O)CCCC(=O)N4CCN(C(=O)c5cc6cc(C(=N)N)ccc6o5)CC4)CC3)cc2c1`, the Ki in assay [1] is 0.0088 µM; at Prothrombin it was 32 µM.
In the same order, the values of `N=C(N)c1ccc2oc(C(=O)N3CCN(C(=O)CCCCC(=O)N4CCN(C(=O)c5cc6cc(C(=N)N)ccc6o5)CC4)CC3)cc2c1` are 0.00086 µM and 23 µM.
For the compound `N=C(N)c1ccc2oc(C(=O)N3CCN(C(=O)CC(=O)N4CCN(C(=O)c5cc6cc(C(=N)N)ccc6o5)CC4)CC3)cc2c1`, the results for the Ki (in assay [1]; at Prothrombin) were 0.65 µM and 82 µM, respectively.
`N=C(N)c1ccc2oc(C(=O)N3CCN(C(=O)COc4ccc(OCC(=O)N5CCCCC5)cc4)CC3)cc2c1` came in with a Ki on Tryptase [2] of 60 nM.
Regarding `O=C(CCCC(=O)N1CCNCC1)C(=O)N1CCN(C(=O)COc2ccc(OCC(=O)N3CCN(C(=O)C(=O)CCCC(=O)N4CCNCC4)CC3)cc2)CC1`, the Ki entry on Tryptase [3] is on record as “Value more than 1x10^4”.
In the case of `N=C(N)Nc1ccc2oc(C(=O)N3CCN(C(=O)COc4ccc(OCC(=O)N5CCN(C(=O)c6cc7cc(NC(=N)N)ccc7o6)CC5)cc4)CC3)cc2c1`, the Ki at Tryptase [2] was 1100 nM; at Prothrombin, 24 µM.
For `CN(C)C(=N)c1ccc2oc(C(=O)N3CCN(C(=O)COc4ccc(OCC(=O)N5CCN(C(=O)c6cc7cc(C(=N)N(C)C)ccc7o6)CC5)cc4)CC3)cc2c1`, at Tryptase [2], the Ki stood at 6600 nM.
`N=C(N)c1ccc2oc(C(=O)N3CCN(C(=O)COc4ccccc4OCC(=O)N4CCN(C(=O)c5cc6cc(C(=N)N)ccc6o5)CC4)CC3)cc2c1`: the Ki on Tryptase [2] amounted to 1.1 nM; at Prothrombin, 88 µM.
Regarding `N=C(N)c1ccc2oc(C(=O)N3CCN(C(=O)CCCCCCC(=O)N4CCN(C(=O)c5cc6cc(C(=N)N)ccc6o5)CC4)CC3)cc2c1`, the Ki at Tryptase [2] is 0.12 nM. In other words, the sub-nanomolar range.
`N=C(N)N1CCc2sc(C(=O)N3CCN(C(=O)COc4ccc(OCC(=O)N5CCN(C(=O)c6cc7c(s6)CCN(C(=N)N)C7)CC5)cc4)CC3)cc2C1`: the Ki at Tryptase [2] is 0.046 nM; on Prothrombin, 29 µM.
As for `N=C(N)c1ccc2sc(C(=O)N3CCN(C(=O)COc4ccc(OCC(=O)N5CCN(C(=O)c6cc7cc(C(=N)N)ccc7s6)CC5)cc4)CC3)cc2c1`, the Ki was 0.028 nM on Tryptase [2] and 22 µM on Prothrombin.
The compound `N=C(N)NCCCCCCC(=O)N1CCN(C(=O)COc2ccc(OCC(=O)N3CCN(C(=O)CCCCCCNC(=N)N)CC3)cc2)CC1` yielded a Ki on Tryptase [2] of 13000 nM. In other words, the double-digit micromolar range.
Still for that read-out and setting: for `O=C(COc1ccc(OCC(=O)N2CCN(C(=O)CC(=O)N3CCNCC3)CC2)cc1)N1CCN(C(=O)CC(=O)N2CCNCC2)CC1` the value was 13000 nM; for `N=C(N)NCCCCCC(=O)N1CCN(C(=O)COc2ccc(OCC(=O)N3CCN(C(=O)CCCCCNC(=N)N)CC3)cc2)CC1`, 23000 nM.
As for `N=C(N)c1ccc2oc(C(=O)N3CCN(C(=O)CCCCCCCC(=O)N4CCN(C(=O)c5cc6cc(C(=N)N)ccc6o5)CC4)CC3)cc2c1`, the figures for the Ki on Tryptase [2] and on Prothrombin were 0.019 nM and 230 µM, respectively.
On to `N=C(N)c1ccc2oc(C(=O)N3CCN(C(=O)COc4ccc(OCC(=O)NCc5ccccc5)cc4)CC3)cc2c1`, for which the Ki in assay [1] amounted to 0.037 µM; on Prothrombin, 28 µM.
Compound `O=C(COc1ccc(OCC(=O)N2CCN(C(=O)c3cc4c(s3)CCNC4)CC2)cc1)N1CCN(C(=O)c2cc3c(s2)CCNC3)CC1` gave a Ki at Tryptase [2] of 970 nM.
Consider `N=C(N)c1ccc2oc(C(=O)N3CCN(C(=O)COc4ccc(OCC(=O)N5CCN(C(=O)c6cc7cc(C(=N)N)ccc7o6)CC5)cc4)CC3)cc2c1`, for which the Ki on Tryptase [2] turned out to be 0.057 nM; at Prothrombin, 32 µM.
`N=C(N)c1ccc2oc(C(=O)N3CCN(C(=O)N4CCN(C(=O)c5cc6cc(C(=N)N)ccc6o5)CC4)CC3)cc2c1` came in with a Ki at Tryptase [2] of 460 nM.
Consider `N=C(N)c1ccc2oc(C(=O)N3CCN(C(=O)CO[C@H]4CCC[C@@H](OCC(=O)N5CCN(C(=O)c6cc7cc(C(=N)N)ccc7o6)CC5)CCC4)CC3)cc2c1`, for which the inhibition in vivo (usually the drop in the measured response relative to a control, in per cent) at 1 mg/kg in the assay with Rattus norvegicus amounted to 51%. In addition, the figures for the Ki on Tryptase [2] and on Prothrombin were 0.029 nM and 15 µM, respectively.
As for `N=C(NCc1ccccc1)c1ccc2oc(C(=O)N3CCN(C(=O)COc4ccc(OCC(=O)N5CCN(C(=O)c6cc7cc(C(=N)NCc8ccccc8)ccc7o6)CC5)cc4)CC3)cc2c1`, at Tryptase [2], the Ki worked out at 1100 nM. This lies in the single-digit micromolar range.
`N=C(N)c1ccc2oc(C(=O)N3CCN(C(=O)CCCCCC(=O)N4CCN(C(=O)c5cc6cc(C(=N)N)ccc6o5)CC4)CC3)cc2c1`: the values for the Ki (in assay [1]; on Prothrombin) were 0.0012 µM and 85 µM, respectively.
In the case of `O=C(CCC(=O)N1CCNCC1)CC(=O)N1CCN(C(=O)COc2ccc(OCC(=O)N3CCN(C(=O)CC(=O)CCC(=O)N4CCNCC4)CC3)cc2)CC1`, the Ki result on Tryptase [3] is on record as “Value more than 1x10^4”.
In the case of `CCOC(=O)COc1ccc(OCC(=O)N2CCN(C(=O)c3cc4cc(C(=N)N)ccc4o3)CC2)cc1`, the Ki at Tryptase [2] was determined as 210 nM.
